# Source: patent US8106090B2, “1-amino linked compounds” (Eli Lilly and Company, priority 2005, dated 2012)
# Where a name gives a salt, the structure may show the parent alone.
# Molecular target: T1, human recombinant DPIV enzyme (Homo sapiens, UniProt P27487)
# T1 construct: Secreted DPIV (lacking membrane anchor) was enriched from HEK293 cell culture supernatant; made in house; host or cells: HEK293
# Test: Human recombinant DPIV activity assay (fluorometric end point, Gly-Pro-AMC substrate)
# Type: biochemical
# Conditions: enriched human recombinant DPIV, Gly-Pro-AMC 0.02 mM, 12 points concentration response curve, duplicates
# Experimental: Human Recombinant DPIV Activity Assay
# The DPIV assay used was a fluorometric end point assay (excitation 355 nm; emission 460 nm) using enriched human recombinant DPIV enzyme (21.3 μU/μl), and Gly-Pro-AMC (Bachem I-1225) as substrate (0.02 mM). Secreted DPIV (lacking membrane anchor) was enriched from HEK293 cell culture supernatant by ultrafiltration, ultra-centrifugation, and size-exclusion chromatography. IC50 values of the compounds were calculated based on a 12 points concentration response curve. Each concentration was measured as duplicates. The assay was validated by plate variability and conformity, inter-plate variability, signal window, and minimum significant ration of IC50. A MSR was calculated based on a test/retest analysis and a retrospective analysis. The MSR value is 1.8.
# T1 sequence (P27487 29-766 limits assumed): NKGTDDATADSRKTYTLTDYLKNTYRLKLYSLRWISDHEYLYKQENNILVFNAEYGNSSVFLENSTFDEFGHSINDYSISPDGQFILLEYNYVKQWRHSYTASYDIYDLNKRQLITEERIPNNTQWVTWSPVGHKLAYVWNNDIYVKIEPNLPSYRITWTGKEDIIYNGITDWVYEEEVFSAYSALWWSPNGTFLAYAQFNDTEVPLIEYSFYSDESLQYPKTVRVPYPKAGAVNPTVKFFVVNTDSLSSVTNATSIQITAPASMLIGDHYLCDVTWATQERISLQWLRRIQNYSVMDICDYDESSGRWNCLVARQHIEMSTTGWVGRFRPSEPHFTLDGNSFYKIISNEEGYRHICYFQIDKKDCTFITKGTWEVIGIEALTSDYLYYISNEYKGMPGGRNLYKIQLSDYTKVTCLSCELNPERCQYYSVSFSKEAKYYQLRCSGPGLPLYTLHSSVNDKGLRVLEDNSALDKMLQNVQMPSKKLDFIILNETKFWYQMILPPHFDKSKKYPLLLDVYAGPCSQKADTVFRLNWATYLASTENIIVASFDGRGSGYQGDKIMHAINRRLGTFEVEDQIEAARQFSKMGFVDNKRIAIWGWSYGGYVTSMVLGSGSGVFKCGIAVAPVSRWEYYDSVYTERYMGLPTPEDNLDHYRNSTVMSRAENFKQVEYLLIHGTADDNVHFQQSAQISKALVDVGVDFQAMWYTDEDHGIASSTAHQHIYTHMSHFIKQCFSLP
row,IC50 [µM],Compound
1,2.73,"N[C@H](Cc1ccccc1)[C@@H](O)CN1CCCC(c2ccccc2)C1 (stereo partly drawn) [Example 6, (2S,3R)-3-Amino-4-phenyl-1-([3R,S]-3-phenyl-piperidin-1-yl)-butan-2-ol Dihydrochloride]"
2,9.76,"CN(C[C@H](O)[C@H](N)Cc1ccccc1)S(C)(=O)=O [Example 21, N-[(2S,3R)-3-Amino-2-hydroxy-4-phenyl-butyl]-N-methyl-methanesulfonamide Hydrochloride]"
3,4.33,"N[C@H](Cc1ccccc1)[C@@H](O)Cn1cnc2ccccc21 [Example 15, (2S,3R)-3-Amino-1-benzimidazol-1-yl-4-phenyl-butan-2-ol Hydrochloride]"
4,2.99,"N[C@H](Cc1ccccc1)[C@@H](O)Cn1cccn1 [Example 13, (2S,3R)-3-Amino-4-phenyl-1-pyrazol-1-yl-butan-2-ol Hydrochloride]"
